In US20220145406A1, “BIOMARKERS, AND USES IN TREATMENT OF VIRAL INFECTIONS, INFLAMMATIONS, OR CANCER” (ABIVAX, priority 2018, published 2022):

Test system: CD4+ T cells
Experiment: RNAseq differential gene expression
Assay type: cell-based, human
Excerpt: All statistical analyses and plots were done with R software v3.5. For normalization and processing, we used edgeR v3.22.1, EDASeq v2.14 and DESeq2 v1.20. We decided to use counts per million (CPM) over transcripts per million (TPM) mainly because TPM discards a lot of information about the original count sizes and thus would have produced too much noise for differential testing. The first step was to filter the data. We considered a gene to be expressed at a reasonable level in a sample if it had at least five counts for each million mapped reads in that sample. For marker selection, we used a type 1^(*) error α threshold set to 5%. enabling a highly flexible approach to the differential analyses despite the lack of replicates. For the same reason, the log2 fold change cutoff was set to 1.5 for both positive and negative values, and the cutoff p-value was typically ≤0.05. Those appropriate cutoffs allowed us to identify differentially expressed genes. The false discovery rate (FDR) values were computed for illustration purposes but were not taken into account in the decision due to the lack of replicates. The first methodology choice was Benjamini and Hochberg. This procedure provides less stringent control of type 1 errors compared to familywise error rate (FWER) procedures (such as the Bonferroni correction). We added an MDS plot for the data with R and edgeR package. The MDS plot produces a plot in which distances between samples correspond to the leading biological coefficient of variation (BCV) between those samples. […] We also produced several volcano plots with R and the EDASeq package. These plots were a good representation of the differential expression (DE) testing in the RNA-Seq experiments. […] The green points highlighted are markers that satisfied our selection criteria (significant in both p-value and log2FC). The yellow points highlighted are genes that satisfied the log2FC criterion but failed the p-value criterion. We retained these points to investigate further even though they had no decisional value.
A full-detailed report describing the complete analysis was submitted to Gene Expression Omnibus (GEO, https://www.ncbi.nlm.nih.gov/geo/query/acc.cgi?acc=GSE116073). Total RNA extraction was performed according to the Qiagen miRNeasy □ kit. RNA concentrations were determined using Qubit[…] fluorometric quantification and purity by the RNA 6000 Bioanalyzer kit (Agilent). RNA-Seq libraries were constructed with the TruSeq stranded mRNA sample preparation (low-throughput protocol) kit from Illumina, according to the manufacturer's instructions. Aliquots of 1.2 μg of total RNA were used for the construction of the libraries. The final cDNA libraries were validated with a Fragment Analyzer (Advanced Analytical, Ankeny, Iowa) and quantified with a KAPA qPCR kit (Kapa Biosystems, Wilmington, Mass.). On the 8 sequencing lanes of a flow cell V4, the 32 libraries were pooled in equal proportions by sets of 4 libraries per lane, denatured with NaOH and diluted to […] before clustering. Cluster formation and primer hybridization and single-end read, 50-cycle sequencing were performed on the cBot and HiSeq 2500 (Illumina, San Diego, Calif.), respectively. Image analysis and base calling were performed using the HiSeq Control Software with the Real-Time Analysis component. Demultiplexing was performed using Illumina's sequencing analysis software. The quality of the data was assessed using FastQC from the Babraham Institute and the Illumina software SAV (Sequence Analysis Viewer). Potential contaminants were investigated with the FastQ Screen software from the Babraham Institute.
In the data preprocessing step, the HiSeq control and real-time analysis software generates image analysis, base calling, and base call quality automatically in real time. “Dirty” raw reads were defined as reads that contained adaptor sequence or high content of unknown bases and low-quality reads. […]

[1] = ABX464_I_vs_DMSO_I, infected CD4 T cells
[2] = ABX464_NI_vs_DMSO_NI, uninfected CD4 T cells
[3] = uninfected CD4+ T cells, ABX464 vs untreated

SMILES: FC(F)(F)Oc1ccc(Nc2ccc3cccc(Cl)c3n2)cc1 [ABX464, 8-chloro-N-(4-(trifluoromethoxy)phenyl)quinolin-2-amine]
- FC CECR1 [1]: 3.412
- FC DPF2 [1]: 3.071
- FC LARS2 [1]: 2.991
- FC LGALS3 [1]: 3.009
- FC NBPF20 [1]: 8.164
- FC NOP9 [1]: 3.02
- FC SCML1 [1]: 7.214
- FC TOR1AIP2 [1]: 14.39
- log2(FC) CECR1 [1]: 1.771
- log2(FC) DPF2 [1]: 1.619
- log2(FC) LARS2 [1]: 1.58
- log2(FC) LGALS3 [1]: 1.589
- log2(FC) NBPF20 [1]: 3.029
- log2(FC) NOP9 [1]: 1.594
- log2(FC) SCML1 [1]: 2.851
- log2(FC) TOR1AIP2 [1]: 3.847
- FC CECR1 [2]: 3.587
- FC DPF2 [2]: 2.95
- FC HELLS [2]: 0.2107
- FC HIST1H1D [2]: 0.3392
- FC HOPX [2]: 3.35
- FC LARS2 [2]: 2.99
- FC MZT2B [2]: 0.3168
- FC NDUFB7 [2]: 0.3486
- FC RPS19BP1 [2]: 0.3377
- FC SCML1 [2]: 9.378
- FC SNORD3A [2]: 0.1318
- FC TOR1AIP2 [2]: 11.2
- log2(FC) CECR1 [2]: 1.843
- log2(FC) DPF2 [2]: 1.561
- log2(FC) HELLS [2]: −2.246
- log2(FC) HIST1H1D [2]: −1.56
- log2(FC) HOPX [2]: 1.744
- log2(FC) LARS2 [2]: 1.58
- log2(FC) MZT2B [2]: −1.658
- log2(FC) NDUFB7 [2]: −1.52
- log2(FC) RPS19BP1 [2]: −1.566
- log2(FC) SCML1 [2]: 3.229
- log2(FC) SNORD3A [2]: −2.924
- log2(FC) TOR1AIP2 [2]: 3.486
- number of upregulated genes (infected CD4+ T cells, ABX464 vs untreated): 9 genes
- number of downregulated genes (infected CD4+ T cells, ABX464 vs untreated (FIG. 2E legend)): 6 genes
- number of downregulated genes [3]: 6 genes
- number of upregulated genes [3]: 7 genes
